# Key:
# A375 melanoma cells [1] = assay: Apo-ONE Homogeneous Caspase-3/7 assay (induction of apoptosis); type: cell-based, human; settings: A375, 24 hours incubation
# Protocol: (§1) 3 human melanoma cell lines (A375, G-361, WM266-4) were maintained in RPMI 1640 culture medium (Sigma, UK) containing 10% (v/v) heat inactivated foetal bovine serum (Sigma, UK) and 2 mM […] at 37° C. in 5% humidified CO2. Cells were harvested, washed, re-suspended into growth medium and counted (Beckman-Coulter Vi-CELL XR). Cells were plated onto the middle 240 wells of 384 tissue culture plates at 1.6×10^5 to 2.4×10^5 cells/ml in 12.5 μl/well aliquots. 50 μl of growth media was aliquoted into the outer wells. 2 plates were prepared per cell line. Plates were incubated overnight at 37° C., in 5% humidified CO2.
# (§2) Dexanabinol was prepared in growth medium at 2 times the final assay concentration at 125, 31.3, 7.81, 2.00, 0.49, 0.12, 0.031 and 0.008 μM (DMSO concentration was kept constant across the dilution range at 0.5%).
# (§3) Cisplatin was used as a positive control. The final assays concentrations were 10, 2.5, 0.63, 0.156, 0.039, 0.010, 0.002 and 0.0006 μg/ml. […] 12.5 μl of growth media was added to the media control wells. The plates were incubated for 24 hours at 37° C., in 5% humidified CO2.
# (§4) Caspase 3/7 levels were assessed by Apo-ONE© Homogeneous Caspase-3/7 assay kit. Fluorescence was measured using a FlexStation© II^384 plate reader at 1, 2, 3 and 4 hours after addition of the caspase substrate. The 4 hour readings were used for analysis.
# G-361 melanoma cells [2] = assay: as above; type: cell-based, human; settings: G-361, 24 hours incubation
# Protocol: as §1, §2, §3, §4
# WM266-4 melanoma cells [3] = assay: as above; type: cell-based, human; settings: WM266-4, 24 hours incubation; for EC50: caspase 3/7
# Protocol: as §1, §2, §3, §4
# A375 melanoma cells [4] = assay: CellTiter-Blue cell viability assay; type: cell-based, human; settings: A375, 24 hours incubation; for IC50: CellTiter-Blue
# Protocol: as §1, §2, §3
# (§5) The cell viability assay was performed in parallel on the same plate for each line using CellTiter-Blue© (Promega) reagent. Briefly, 25 μl of CellTiter-Blue© (Promega) reagent was added to each well. The plates were shaken for 1 minute at 500 rpm and then incubated at 37° C., 5% CO2 for 4 hours.
# G-361 melanoma cells [5] = assay: CellTiter-Blue cell viability assay; type: cell-based, human; settings: G-361, 24 hours incubation; for IC50: CellTiter-Blue
# Protocol: as §1, §2, §3, §5
# WM266-4 melanoma cells [6] = assay: CellTiter-Blue cell viability assay; type: cell-based, human; settings: WM266-4, 24 hours incubation; for IC50: CellTiter-Blue
# Protocol: as §1, §2, §3, §5
# A375 melanoma cells [7] = assay: Sulforhodamine B (SRB) growth inhibition assay; type: cell-based, human
# Protocol: (§6) The ability of dexanabinol to inhibit melanoma cell growth was also studied in 3 melanoma cell lines (A375, UACC62, Malme-3M) using the Sulforhodamine B (SRB) assay.
# (§7) Sterile solutions of the final concentrations of dexanabinol were prepared (0.001 μM to 100 μM in 0.5% DMSO).
# (§8) The cells were incubated with drug concentrations in 0.5% DMSO (100 μl total volume per well) at 37° C. in 5% CO2 for 5 days. Control wells contained cells plus 0.5% DMSO plus medium.
# (§9) The SRB growth inhibition assay was conducted over 24 and 5 day exposure periods. Following exposure, the cells were fixed, stained with SRB and read on a SpectorMax® 250 microplate spectrophotometer system plate reader.
# UACC62 melanoma cells = assay: Sulforhodamine B (SRB) growth inhibition assay; type: cell-based, human; settings: UACC62, 5-day exposure
# Protocol: as §6, §7, §8, §9
# Malme-3M melanoma cells = assay: Sulforhodamine B (SRB) growth inhibition assay; type: cell-based; settings: Homo sapiens, 120 h, 5-day exposure
# Protocol: as §6, §7, §8, §9
# A375 melanoma cells [8] = assay: Clonogenic assay, time-course effect on cell proliferation; type: cell-based, human; settings: A375, 1 hour vs 24 hours exposure
# Protocol: The time-course effect of dexanabinol on cell proliferation in one melanoma cell line, A375, was examined using the clonogenic assay method.
# A375 cells were harvested from the growing cell culture and counted. Cells were diluted to 1.0×10^5/ml and seeded 2 ml/well to 6 well plates.
# The cells were incubated overnight at 37° C. in humidified incubator 95% air+5% CO2.
# The cells were treated with dexanabinol at 4 doses up to 20 μM at 3 exposure periods (1 hour, 6 hours and 24 hours).
# After each exposure period, the cells were harvested from the wells by washing twice with PBS then adding 0.2 ml of single strength trypsin to each well and incubating at 37° C. until the cells detached. Cell suspensions were counted at 1/10 dilution and then diluted to 1/10, 1/100, 1/1000.
# 10 cm dishes (containing 7 ml fresh medium) were seeded with 3 different cell densities for dexanabinol treatment and control treatment. When colonies of suitable size formed in the control dishes, dishes were fixed, stained and counted.
# Percentage survival in the dexanabinol treated A375 cells was calculated using the following equation: […]
# [9] = Preliminary pharmacokinetic (PK) and maximum tolerated dose (MTD) study; type: in vivo, CD1 A375 tumour-bearing mice; settings: CD1 mice
# Protocol: (§10) Having established that dexanabinol inhibited melanoma cell proliferation in vitro, we then sought to establish whether the compound was active in vivo. A preliminary pharmacokinetic (PK) and maximum tolerated dose (MTD) study was carried out to determine whether therapeutically effective dose levels of dexanabinol could be achieved in CD1 A375 tumour-bearing mice. […] On the basis of this, a single-dose efficacy study was undertaken. Dexanabinol was diluted in a vehicle of 10% Cremophor/Ethanol (1:1 v/v) in saline. Control mice received vehicle alone.
# [10] = tested on: A375 human tumour xenograft; assay: Single-dose efficacy study, human melanoma cell xenograft growth; type: in vivo; settings: single dose 100 mg/kg i.v., CD1 nude mice bearing A375 xenograft
# Protocol: as §10
# 10 mice received 100 mg/kg i.v. dexanabinol. 10 mice received Vehicle (10 ml/kg) Mice were implanted with 1×10^7 A375 human melanoma cells, in 50 μl of medium, on the flank. Once tumours were palpable (approx 5 mm×5 mm) 20 mice were treated with either dexanabinol or vehicle (as outlined above). […] Tumour size was measured 3 times a week after treatment. The treatment lasted 4 weeks
# [11] = tested on: 3 melanoma cell lines (A375, G-361, WM266-4); assay: CellTiter-Blue cytotoxic response, summary over 3 melanoma cell lines; type: cell-based; settings: Homo sapiens, 24 h, read-out: IC50 of cytotoxic response
# Protocol: Cells were harvested, washed, re-suspended into growth medium and counted (Beckman-Coulter Vi-CELL XR). […] 50 μl of growth media was aliquoted into the outer wells. 2 plates were prepared per cell line. Plates were incubated overnight at 37° C., in 5% humidified CO2.
# The final assays concentrations were 10, 2.5, 0.63, 0.156, 0.039, 0.010, 0.002 and 0.0006 μg/ml. […] 12.5 μl of growth media was added to the media control wells. The plates were incubated for 24 hours at 37° C., in 5% humidified CO2.
# The plates were shaken for 1 minute at 500 rpm and then incubated at 37° C., 5% CO2 for 4 hours.
# [12] = tested on: human melanoma cell lines (A375, G-361, WM266-4); assay: Caspase 3/7 apoptosis induction, summary over melanoma cell lines; type: cell-based
# Protocol: as §1, §2, §3, §4
# [13] = tested on: all tested human melanoma cell lines; assay: In vitro cell proliferation assays, summary over all tested lines; type: cell-based
# Protocol: as §5, §6, §9
smiles,measurement,setting,value
N.N.[Cl][Pt][Cl] [Cisplatin],Rank of apoptosis induction,A375 melanoma cells [1],** (moderate apoptosis induction and decrease in proliferation (35-70%))
same,EC50,A375 melanoma cells [1]; caspase 3/7,5.67 µM
same,Rank of apoptosis induction,G-361 melanoma cells [2],** (moderate apoptosis induction and decrease in proliferation (35-70%))
same,EC50,G-361 melanoma cells [2]; caspase 3/7,33.3 to 100 µM
same,Rank of apoptosis induction,WM266-4 melanoma cells [3],*** (good apoptosis induction and decrease in proliferation (>70%))
same,EC50,WM266-4 melanoma cells [3],33.3 to 100 µM
same,Rank of decrease in proliferation (viability),A375 melanoma cells [4],** (moderate apoptosis induction and decrease in proliferation (35-70%))
same,IC50,A375 melanoma cells [4],21.8 µM
same,Rank of decrease in proliferation (viability),G-361 melanoma cells [5],** (moderate apoptosis induction and decrease in proliferation (35-70%))
same,IC50,G-361 melanoma cells [5],18 µM
same,Rank of decrease in proliferation (viability),WM266-4 melanoma cells [6],* (weak apoptosis induction and decrease in proliferation (<35%))
same,IC50,WM266-4 melanoma cells [6],62 µM
"CCCCCCC(C)(C)c1cc(O)c2c(c1)OC(C)(C)[C@H]1CC=C(CO)C[C@H]21 [Dexanabinol, 1,1 dimethyl heptyl-(3S,4S)-7-hydroxy-Δ^6-tetrahydrocannabinol]",Rank of apoptosis induction,A375 melanoma cells [1],ND*** (good apoptosis induction and decrease in proliferation (>70%))
same,Rank of apoptosis induction,G-361 melanoma cells [2],ND* (weak apoptosis induction and decrease in proliferation (<35%))
same,EC50,"WM266-4 melanoma cells [3]; Homo sapiens, WM 266-4",13 µM
same,Rank of apoptosis induction,WM266-4 melanoma cells [3],*** (good apoptosis induction and decrease in proliferation (>70%))
same,Rank of decrease in proliferation (viability),A375 melanoma cells [4],** (moderate apoptosis induction and decrease in proliferation (35-70%))
same,IC50,"A375 melanoma cells [4]; Homo sapiens, A-375",19.2 µM
same,Rank of decrease in proliferation (viability),G-361 melanoma cells [5],*** (good apoptosis induction and decrease in proliferation (>70%))
same,IC50,G-361 melanoma cells [5]; Homo sapiens,11 µM
same,IC50,"WM266-4 melanoma cells [6]; Homo sapiens, WM 266-4",20.9 µM
same,Rank of decrease in proliferation (viability),WM266-4 melanoma cells [6],** (moderate apoptosis induction and decrease in proliferation (35-70%))
same,GI50,"A375 melanoma cells [7]; A375, 5-day exposure",14.4 µM
same,GI50,"A375 melanoma cells [7]; Homo sapiens, A-375, 24 h, A375, 24-hour exposure",14.3 µM
same,GI50,"A375 melanoma cells [7]; Homo sapiens, A-375, 120 h, A375, 5-day exposure",16.2 µM
same,GI50,"UACC62 melanoma cells; Homo sapiens, UACC-62, 120 h",18.5 µM
same,GI50,UACC62 melanoma cells,18.1 µM
same,GI50,Malme-3M melanoma cells,13.3 µM
same,Time dependence of cell killing,A375 melanoma cells [8],time-independent
same,Plasma concentration,"[9]; at the MTD, 100 mg/kg i.v. single dose",10 µM
same,MTD,"[9]; mouse, in vivo, iv, i.v. single dose",100 mg/kg
same,Effect on tumour xenograft growth,[10],growth delaying effect
same,IC50,[11],10 to 21 µM
same,Concentration of peak response in apoptosis,"[12]; 24 hours incubation, response dropped at the highest concentration",2.5 µM
same,Mode of cell death,[12]; caspase 3/7,induced apoptotic cell death in a caspase 3/7 dependent manner
same,Mean concentration at which profoundly cytotoxic,[13]; all tested human melanoma cell lines,~14
same,Drug concentrations at which in vitro anti-tumour effects were observed,[13]; in vitro,10 to 20 µM

# Reference: patent US20110033376A1, “Treatment of Melanoma” (priority 2007, published 2011)
